Test system: IGROV1 complex spheroids (HUVEC, MSC), viability % test/control
Experiment: Anticancer human tumor IGROV1 cell line growth inhibition [GQUAD];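 note: spheroids exposed to compounds for 7 days before readout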;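 for viability, T/C: 100% = DMSO vehicle control viability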
Conditions: for IC50: curve of first compound; for viability, T/C: stronger effect = lower value
In short: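 Viability of tumor cells grown as complex spheroids with endothelial and stromal cells, exposed to drug combinations. Top concentration at or near clinical Cmax (else 10 microM), diluted in half-log increments.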

[1] = second compound 0.0316 µM, first compound 0.0316 µM
[2] = second compound 0.0316 µM, first compound 0.1 µM
[3] = second compound 0.0316 µM, first compound 0.316 µM
[4] = second compound 0.0316 µM, first compound 1 µM
[5] = second compound 0.0316 µM, first compound 3.16 µM
[6] = second compound 0.0316 µM, first compound 10 µM
[7] = second compound 0.1 µM, first compound 0.0316 µM
[8] = second compound 0.1 µM, first compound 0.1 µM
[9] = second compound 0.1 µM, first compound 0.316 µM
[10] = second compound 0.1 µM, first compound 1 µM
[11] = second compound 0.1 µM, first compound 3.16 µM
[12] = second compound 0.1 µM, first compound 10 µM
[13] = second compound 0.316 µM, first compound 0.0316 µM
[14] = second compound 0.316 µM, first compound 0.1 µM
[15] = second compound 0.316 µM, first compound 0.316 µM
[16] = second compound 0.316 µM, first compound 1 µM
[17] = second compound 0.316 µM, first compound 3.16 µM
[18] = second compound 0.316 µM, first compound 10 µM
[19] = second compound 1 µM, first compound 0.0316 µM
[20] = second compound 1 µM, first compound 0.1 µM
[21] = second compound 1 µM, first compound 0.316 µM
[22] = second compound 1 µM, first compound 1 µM
[23] = second compound 1 µM, first compound 3.16 µM
[24] = second compound 1 µM, first compound 10 µM
[25] = second compound 3.16 µM, first compound 0.0316 µM
[26] = second compound 3.16 µM, first compound 0.1 µM
[27] = second compound 3.16 µM, first compound 0.316 µM
[28] = second compound 3.16 µM, first compound 1 µM
[29] = second compound 3.16 µM, first compound 3.16 µM
[30] = second compound 3.16 µM, first compound 10 µM
[31] = second compound 10 µM, first compound 0.0316 µM
[32] = second compound 10 µM, first compound 0.1 µM
[33] = second compound 10 µM, first compound 0.316 µM
[34] = second compound 10 µM, first compound 1 µM
[35] = second compound 10 µM, first compound 3.16 µM
[36] = second compound 10 µM, first compound 10 µM

CCCS(=O)(=O)Nc1ccc(F)c(C(=O)c2c[nH]c3ncc(-c4ccc(Cl)cc4)cc23)c1F + Cc1cnc(CNC(=O)c2c(=O)c3ccc(N4CCCN(C)CC4)nc3n3c2sc2ccccc23)cn1
IC50 (second compound 0.0316 µM): 1470 nM | IC50 (second compound 0.1 µM): < 31.6 nM | IC50 (second compound 0.316 µM): < 31.6 nM | IC50 (second compound 1 µM): < 31.6 nM | IC50 (second compound 3.16 µM): < 31.6 nM | IC50 (second compound 10 µM): < 31.6 nM | viability, T/C [1]: 77.1% | viability, T/C [2]: 71.3% | viability, T/C [3]: 50.1% | viability, T/C [4]: 52.3% | viability, T/C [5]: 51.9% | viability, T/C [6]: 14.2% | viability, T/C [7]: 44.5% | viability, T/C [8]: 42.7% | viability, T/C [9]: 41.1% | viability, T/C [10]: 31.6% | viability, T/C [11]: 37.9% | viability, T/C [12]: 9.64% | viability, T/C [13]: 21% | viability, T/C [14]: 33.1% | viability, T/C [15]: 25.4% | viability, T/C [16]: 24.6% | viability, T/C [17]: 14.4% | viability, T/C [18]: 7.38% | viability, T/C [19]: 15.1% | viability, T/C [20]: 17.2% | viability, T/C [21]: 11.9% | viability, T/C [22]: 15.9% | viability, T/C [23]: 14.6% | viability, T/C [24]: 5.36% | viability, T/C [25]: 9.19% | viability, T/C [26]: 7.43% | viability, T/C [27]: 10.5% | viability, T/C [28]: 10.6% | viability, T/C [29]: 9.32% | viability, T/C [30]: 4.31% | viability, T/C [31]: 10.1% | viability, T/C [32]: 9.63% | viability, T/C [33]: 8.82% | viability, T/C [34]: 8.04% | viability, T/C [35]: 6.37% | viability, T/C [36]: 5.19%

COc1ccc([C@@H](O)c2cc(-c3ncnc4cc(N5CCOCC5)ccc34)c(F)cc2Cl)nn1 + CN(C)c1ccc(Nc2c3ccc(NC(=O)CCN4CCCC4)cc3nc3cc(NC(=O)CCN4CCCC4)ccc23)cc1
IC50 (second compound 0.0316 µM): 1420 nM | IC50 (second compound 0.1 µM): 709 nM | IC50 (second compound 0.316 µM): 718 nM | IC50 (second compound 1 µM): 659 nM | IC50 (second compound 3.16 µM): 348 nM | IC50 (second compound 10 µM): 107 nM | viability, T/C [1]: 89.1% | viability, T/C [2]: 89.1% | viability, T/C [3]: 94.4% | viability, T/C [4]: 62% | viability, T/C [5]: 20.7% | viability, T/C [6]: 7.56% | viability, T/C [7]: 88.4% | viability, T/C [8]: 72.3% | viability, T/C [9]: 74% | viability, T/C [10]: 40.1% | viability, T/C [11]: 14.7% | viability, T/C [12]: 6.35% | viability, T/C [13]: 93.1% | viability, T/C [14]: 82.9% | viability, T/C [15]: 71% | viability, T/C [16]: 41.8% | viability, T/C [17]: 17.6% | viability, T/C [18]: 6.18% | viability, T/C [19]: 63.1% | viability, T/C [20]: 82.2% | viability, T/C [21]: 74% | viability, T/C [22]: 37.1% | viability, T/C [23]: 11.4% | viability, T/C [24]: 5.01% | viability, T/C [25]: 69.4% | viability, T/C [26]: 82.5% | viability, T/C [27]: 49.1% | viability, T/C [28]: 21.6% | viability, T/C [29]: 8.01% | viability, T/C [30]: 5.13% | viability, T/C [31]: 56.6% | viability, T/C [32]: 52.6% | viability, T/C [33]: 30.4% | viability, T/C [34]: 13.7% | viability, T/C [35]: 5.94% | viability, T/C [36]: 4.92%

CC(C)(O)C1CCC(Nc2ccc3ncc(-c4cccc(C(F)(F)F)c4)n3n2)CC1 (stereo unspecified) + CN(C)c1ccc(Nc2c3ccc(NC(=O)CCN4CCCC4)cc3nc3cc(NC(=O)CCN4CCCC4)ccc23)cc1
IC50 (second compound 0.0316 µM): 2180 nM | IC50 (second compound 0.1 µM): 2240 nM | IC50 (second compound 0.316 µM): 1420 nM | IC50 (second compound 1 µM): 1750 nM | IC50 (second compound 3.16 µM): 1370 nM | IC50 (second compound 10 µM): 134 nM | viability, T/C [1]: 103% | viability, T/C [2]: 83.8% | viability, T/C [3]: 74.8% | viability, T/C [4]: 74% | viability, T/C [5]: 32.3% | viability, T/C [6]: 35.5% | viability, T/C [7]: 101% | viability, T/C [8]: 91.8% | viability, T/C [9]: 70.6% | viability, T/C [10]: 70.1% | viability, T/C [11]: 36.7% | viability, T/C [12]: 39.5% | viability, T/C [13]: 93.7% | viability, T/C [14]: 63.9% | viability, T/C [15]: 85.9% | viability, T/C [16]: 58% | viability, T/C [17]: 30.1% | viability, T/C [18]: 33.2% | viability, T/C [19]: 86.6% | viability, T/C [20]: 92.6% | viability, T/C [21]: 78.8% | viability, T/C [22]: 72.3% | viability, T/C [23]: 26.2% | viability, T/C [24]: 23% | viability, T/C [25]: 77% | viability, T/C [26]: 81.9% | viability, T/C [27]: 78.2% | viability, T/C [28]: 61.9% | viability, T/C [29]: 18.6% | viability, T/C [30]: 9.94% | viability, T/C [31]: 60.9% | viability, T/C [32]: 54.3% | viability, T/C [33]: 37.5% | viability, T/C [34]: 25.9% | viability, T/C [35]: 5.34% | viability, T/C [36]: 2.55%
